Data: patent publication US6586204B2, “Apoptosis gene EI24, compositions, and methods of use” (Apoptosis Technology, Inc., priority 1996, dated 2003)

Key:
p21/WAF1 mRNA = assay: Northern blot of E1A/ras transformed murine embryonic fibroblasts, p21/WAF1 probe; assay type: cell-based
Method: (§1) Northern blot showing induction of EI24 RNA by p53 in E1A/ras transformed murine embryonic fibroblasts (MEFs). 1.0 μg of poly-A^+ RNA was loaded per lane. p53^+/+ and p53^−/− MEFs were left untreated, or treated with 50 μM etoposide for 6 hours, as indicated (lanes 1-4). Alternately, p53^−/− MEFs expressing either empty vector (pBabe Puro), or a tamoxifen-regulatable p53 (p53ER™) were left untreated, or treated with 3.3 μM tamoxifen (TMX) for 16 hours (lanes 5-8). The northern blot was hybridized sequentially with probes for EI24, p21/WAF1 and tubulin.
E1A and ras transformed mouse embryo fibroblasts and expression of the p53-ER™ fusion protein. Stable cell lines of p53^+/+ and p53^−/− MEFs expressing the oncogenes E1A and T24 H-ras were generated as described previously (Lowe S. W., Jacks T., Housman D. E. and Ruley H. E. (1994) Proc. Natl. Acad. Sci. USA, 91, 2026-2030). The plasmid for expression of the p53ER™ fusion protein, pBabe Puro p53ER™ G525R, using the retroviral vector pBabe Puro (Morgenstern J. P. and Land H. (1990) Nucl. Acids Res., 18, 3587-3596), was received as a generous gift from Trevor Littlewood (Imperial Cancer Research Fund, London). […]

EI24 mRNA = assay: Northern blot of E1A/ras transformed murine embryonic fibroblasts, EI24 probe; assay type: cell-based
Method: as §1
E1A and ras transformed mouse embryo fibroblasts and expression of the p53-ER™ fusion protein. Stable cell lines of p53^+/+ and p53^−/− MEFs expressing the oncogenes E1A and T24 H-ras were generated as described previously (Lowe S. W., Jacks T., Housman D. E. and Ruley H. E. (1994) Proc. Natl. Acad. Sci. USA, 91, 2026-2030). The plasmid for expression of the p53ER™ fusion protein, pBabe Puro p53ER™ G525R, using the retroviral vector pBabe Puro (Morgenstern J. P. and Land H. (1990) Nucl. Acids Res., 18, 3587-3596), was received as a generous gift from Trevor Littlewood (Imperial Cancer Research Fund, London). In brief, this plasmid contains the ˜1.3 kb BamHI fragment of human p53 from pSV53her (Roemer K. and Friedmann T. (1993) Proc. Natl. Acad. Sci. USA, 90, 9252-9256) fused to the ligand-binding domain of the murine estrogen receptor carrying a point mutation at amino acid 525 that renders the receptor unable to bind estradiol but able to bind tamoxifen or 4-hydroxy tamoxifen (Danielian P., White R., Hoare S., Fawell S. and Parker M. (1993) Mol Endocrinol, 7, 232-240; Littlewood T. D., Hancock D. C., Danielian P. S., Parker M. G. and Evan G. I. (1995) NAR, 23, 1686-1690). For induction of wild-type p53 activity, p53ER™ transfected p53^−/− cells were treated with […] tamoxifen (Sigma). […]

[1] = system: 5 kb mRNA detected by 38T19 probe; assay: Northern blot of etoposide-treated 3T3 cells, 38T19 probe; assay type: cell-based, Murine; conditions: 50 μM etoposide, 6 to 11 hours after treatment
Method: Induction of the 2.4 kb mRNA appeared to be maximal by 6 hours after etoposide exposure, representing a 7-fold increase. […] The levels of this mRNA were highest in untreated cells, and decreased at 6 to 11 hours after etoposide treatment, corresponding to a 4-fold reduction.

[2] = system: 2.4 kb mRNA recognized by 11G10 (EI24); assay: Northern blot of etoposide-treated 3T3 cells, 11G10 probe; conditions: 50 μM etoposide
NIH3T3 fibroblasts = assay: Etoposide exposure of asynchronously growing NIH3T3 fibroblasts, cell killing and microscopic observation; assay type: cell-based, Murine; conditions: 50 μM etoposide

| Structure (SMILES) | induction of WAF1 mRNA (p21/WAF1 mRNA; tamoxifen treatment, p53ER p53−/− cells) | induction of EI24 mRNA (EI24 mRNA; tamoxifen, p53−/− control cell line (pBabe Puro) with empty vector) | reduction of 5 kb mRNA [1] [fold] | induction of WAF1 RNA (p21/WAF1 mRNA; etoposide, p53−/− MEFs, maximal level lower than in p53+/+ cells) | increase of 2.4 kb mRNA (EI24) ([2]; 3 hours post treatment) [fold] | increase of 2.4 kb mRNA (EI24), maximal induction ([2]; 6 hours after exposure) [fold] | signs of apoptosis by microscopic observation (NIH3T3 fibroblasts; for at least 6 hours following exposure) | cell killing (NIH3T3 fibroblasts; within 24 hours, asynchronously growing NIH3T3 cells) | induction of EI24 mRNA (EI24 mRNA; etoposide 50 μM, 6 hours, E1A/ras-transformed p53+/+ cells) | induction of EI24 mRNA (EI24 mRNA; etoposide 50 μM, 6 hours, E1A/ras-transformed p53−/− cells) |
| --- | --- | --- | --- | --- | --- | --- | --- | --- | --- | --- |
| CC/C(=C(\c1ccccc1)c1ccc(OCCN(C)C)cc1)c1ccccc1 [tamoxifen] | strongly induced | No EI24 induction | – | – | – | – | – | – | – | – |
| COc1cc([C@@H]2c3cc4c(cc3[C@@H](O[C@@H]3O[C@@H]5CO[C@@H](C)O[C@H]5[C@H](O)[C@H]3O)[C@H]3COC(=O)[C@H]23)OCO4)cc(OC)c1O [etoposide, Etoposide] | – | – | 4 | WAF1 RNA was induced | 4 | 7 | no obvious signs of apoptosis | kill the majority of asynchronously growing cells | further induced | No induction of EI24 |
